# Where two headings read alike, the source gives them in different places. Peptide text beside a SMILES is read from it.
# What was measured:
# MRSA-OS = assay: microbe, parasite or virus in culture; assay type: cell-based, Staphylococcus aureus; settings: 24 h
# Description: (§1) A range of Gram-positive and Gram-negative laboratory- and clinical-strain bacteria were used for the experiments. These included laboratory-strain methicillin-sensitive S. aureus (MSSA; including SH1000 and ATCC SA29213), laboratory-strain MRSA (ATCC MRSA43300), clinical-strain MRSA (MRSA-OS; an IK isolate), laboratory-strain methicillin-sensitive Staphylococcus epidermidis (MSSE; ATCC SE12228), laboratory invasive-strain P. aeruginosa (PAO1-L), and clinical cytotoxic-strain P. aeruginosa (PA-OS; an IK isolate).
# (§2) In vitro antimicrobial efficacy of the antibiotics and designed HDPs was determined using an established MIC assay with broth microdilution method approved by the Clinical and Laboratory Standards Institute (CLSI)[64]. Briefly, the microorganisms were cultured on Tryptone Soya Agar (TSA) and incubated overnight for 18–21 h at 37 °C. Bacterial inoculums were subsequently prepared using the direct colony suspension method. Three to five bacterial colonies were obtained from the agar plate and inoculated into an Eppendorf tube containing 1 ml of cation-adjusted Muller-Hinton broth (caMHB), consisting of 20–25 mg/L calcium ions (Ca^2+) and 10–12.5 mg/L magnesium ions (Mg^2+). The bacterial suspension was adjusted to achieve a turbidity equivalent to 0.1 OD600 or 0.5 MacFarland, containing ~ 1.5 × 10^8 colony-forming unit (CFU)/ml, which was then further diluted in 1:150 in caMHB to reach a final bacterial concentration of ~ 1 × 10^6 colony forming units (CFU)/ml. Each treatment (peptide or antibiotic) was prepared in 1:2 serial dilution in 96-well polypropylene microplates (with a final treatment volume of 50 μl per well), followed by the addition of 50 μl of 1 × 10^6 CFU/ml bacteria into each well (with a final bacterial concentration of 5 × 10^5 CFU/ml).
# S. aureus SH1000 = assay: microbe, parasite or virus in culture; assay type: cell-based, Staphylococcus aureus
# Description: as §1, §2
# P. aeruginosa PAO1-L = assay: microbe, parasite or virus in culture; assay type: cell-based
# Description: as §1, §2
# P. aeruginosa PA-OS = assay: microbe, parasite or virus in culture; assay type: cell-based; settings: 24 h
# Description: as §1, §2
# [1] = system: human corneal epithelial cells (HCE-2); assay: cells; assay type: cell-based; settings: 3 h
# Procedure: Cell viability and cytotoxicity of antibiotics and peptides were determined against human corneal epithelial cells (HCE-2, CRL-11135, ATCC, Manassas, Virginia, USA) using cell-counting-kit-8 (CCK-8) assay (Sigma Aldrich, Merck Life Science UK Limited, Dorset, UK) and lactate dehydrogenase (LDH) assay (ThermoFisher Scientific, UK), respectively, as per manufacturer’s guidelines. HCE-2 cells were cultured and seeded into a 96-well plate at a density of 7.5 × 10^3 cells/well and allowed to attach overnight and grew to 80–90% confluency in keratinocyte serum free medium (KSFM) supplemented with human recombinant epidermal growth factor, bovine pituitary extract, hydrocortisone, and insulin. Once the confluency reached 80–90%, the cells were incubated with treatment for 3 h before OD450 measurement was taken using BMG Clariostar microplate reader (BMG Labtech Ltd., Aylesbury, UK). Appropriate controls were used, including 0.1% Triton X-100 as positive control and KSFM as negative control. Cell viability was calculated using the following formula: [([…]) × 100; I = intensity] and cytotoxicity was calculated using the following formula: [((Itreatment – INC)/(IPC – INC)) × 100].
# [2] = 0 mM NaCl, caMHB, read-out: MIC
# [3] = 0 mM NaCl, caMHB, 24 h, read-out: MIC
Compound,MIC (MRSA-OS; -OS) [µg/mL],"MIC (S. aureus SH1000; SH1000, 24 h) [µg/mL]","MIC (P. aeruginosa PAO1-L; PAO1, 24 h) [µg/mL]",MIC (MRSA-OS; [2]) [µM],MIC (S. aureus SH1000; [3]) [µM],MIC (P. aeruginosa PAO1-L; [3]) [µM],"MIC (S. aureus SH1000; 150 mM NaCl, caMHB, 24 h, read-out: MIC) [µM]",MIC (P. aeruginosa PA-OS; [2]) [µM],MIC (P. aeruginosa PA-OS; PA-OS) [µg/mL],IC50 (concentration causing 50% inhibition of cell viability) [1] [µg/mL],"Imax (%): percentage of inhibition of cell viability at 200 µg/ml ([1]; HCE-2, CCK-8 assay, 200 µg/ml, mean (SD))"
"CC[C@H](C)[C@H](NC(=O)[C@H](CCCNC(=N)N)NC(=O)[C@H](CCC(N)=O)NC(=O)[C@@H](NC(=O)[C@@H](NC(=O)[C@H](CCCNC(=N)N)NC(=O)[C@@H](N)CCCCN)[C@@H](C)CC)C(C)C)C(=O)N[C@@H](CCCCN)C(=O)N[C@@H](CC(=O)O)C(=O)N[C@@H](Cc1ccccc1)C(=O)N[C@@H](CC(C)C)C(=O)N[C@@H](CCCNC(=N)N)C(=O)O [Ca12, KRIVQRIKDF LR] (H-KRIVQRIKDFLR-OH; N-terminus and C-terminus assumed)",> 200,> 200,200,–,–,–,–,–,–,–,–
"C[C@H](NC(=O)[C@H](CCCCN)NC(=O)CNC(=O)[C@@H](N)CCCNC(=N)N)C(=O)N[C@@H](CCCCN)C(=O)N[C@@H](CS)C(=O)N[C@@H](CS)C(=O)N[C@@H](CCCCN)C(=O)N[C@@H](CCCNC(=N)N)C(=O)NCC(=O)N[C@@H](CCCNC(=N)N)C(=O)N[C@@H](CCCCN)C(=O)N[C@@H](CS)C(=O)N[C@@H](CS)C(=O)N[C@@H](CCCNC(=N)N)C(=O)N[C@@H](CCCNC(=N)N)C(=O)N[C@@H](CCCCN)C(=O)N[C@@H](CCCCN)C(=O)O [DD13, RGKAKCCKRG RKCCRRKK] (H-RGKAKCCKRGRKCCRRKK-OH; N-terminus and C-terminus assumed)",> 200,> 200,> 200,> 92.3,> 92.3,> 92.3,–,–,–,–,–
"CC[C@H](C)[C@H](NC(=O)[C@H](CCCNC(=N)N)NC(=O)[C@H](CCC(N)=O)NC(=O)[C@@H](NC(=O)[C@@H](NC(=O)[C@H](CCCNC(=N)N)NC(=O)[C@@H](N)CCCCN)[C@@H](C)CC)C(C)C)C(=O)N[C@@H](CCCCN)C(=O)N[C@@H](CC(=O)O)C(=O)N[C@@H](Cc1c[nH]c2ccccc12)C(=O)N[C@@H](CC(C)C)C(=O)N[C@@H](CCCNC(=N)N)C(=O)N[C@@H](CCCCN)C(=O)N[C@@H](CS)C(=O)N[C@@H](CS)C(=O)N[C@@H](CCCCN)C(=O)N[C@@H](CCCCN)C(=O)N1CCC[C@H]1C(=O)O [CaD22, KRIVQRIKDW LRKCCKKP] (H-KRIVQRIKDWLRKCCKKP-OH; N-terminus and C-terminus assumed)",> 200,–,200,> 87.0,43.5,87.0,> 87.0,87.0,200,> 200,34.3 (8.2) %
"CC[C@H](C)[C@H](NC(=O)[C@H](CCCNC(=N)N)NC(=O)[C@H](CCC(N)=O)NC(=O)[C@@H](NC(=O)[C@@H](NC(=O)[C@H](CCCNC(=N)N)NC(=O)[C@@H](N)CCCCN)[C@@H](C)CC)C(C)C)C(=O)N[C@@H](CCCCN)C(=O)N[C@@H](CC(=O)O)C(=O)N[C@@H](Cc1ccccc1)C(=O)N[C@@H](CC(C)C)C(=O)N[C@@H](CCCNC(=N)N)C(=O)N[C@@H](CCCNC(=N)N)C(=O)NCC(=O)N[C@@H](CCCCN)C(=O)N[C@@H](C)C(=O)N[C@@H](CCCCN)C(=O)O [CaD1, KRIVQRIKDF LRRGKAK] (H-KRIVQRIKDFLRRGKAK-OH; N-terminus and C-terminus assumed)",> 200,> 200,> 200,–,–,–,–,–,–,–,–
"N=C(N)NCCC[C@H](NC(=O)CNC(=O)[C@@H](N)CCCNC(=N)N)C(=O)N[C@@H](CCCCN)C(=O)N[C@@H](CS)C(=O)N[C@@H](CS)C(=O)N[C@@H](CCCNC(=N)N)C(=O)N[C@@H](CCCNC(=N)N)C(=O)N[C@@H](CCCCN)C(=O)N[C@@H](CCCCN)C(=O)O [BD3-10, RGRKCCRRKK] (H-RGRKCCRRKK-OH; N-terminus and C-terminus assumed)",> 200,> 200,> 200,> 154.9,> 154.9,> 154.9,–,–,–,–,–
"NCCCC[C@H](NC(=O)[C@H](CS)NC(=O)[C@H](CS)NC(=O)[C@@H](N)CCCCN)C(=O)N[C@@H](CCCCN)C(=O)N1CCC[C@H]1C(=O)O [BD2-6, KCCKKP] (H-KCCKKP-OH; N-terminus and C-terminus assumed)",> 200,> 200,> 200,> 283.3,> 283.3,> 283.3,–,–,–,–,–
"N=C(N)NCCC[C@H](NC(=O)CNC(=O)[C@@H](N)CCCNC(=N)N)C(=O)N[C@@H](CCCCN)C(=O)N[C@@H](CS)C(=O)N[C@@H](CS)C(=O)N[C@@H](CCCNC(=N)N)C(=O)N[C@@H](CCCNC(=N)N)C(=O)N[C@@H](CCCCN)C(=O)N[C@@H](CCCCN)C(=O)N[C@@H](CCCCN)C(=O)N[C@@H](CS)C(=O)N[C@@H](CS)C(=O)N[C@@H](CCCCN)C(=O)N[C@@H](CCCCN)C(=O)N1CCC[C@H]1C(=O)O [DD32, RGRKCCRRKK KCCKKP] (H-RGRKCCRRKKKCCKKP-OH; N-terminus and C-terminus assumed)",–,> 200,> 200,> 101,> 101,> 101,–,–,–,–,–
"CC[C@H](C)[C@H](NC(=O)[C@@H](N)CCCNC(=N)N)C(=O)N[C@@H](CCCCN)C(=O)N[C@@H](CC(=O)O)C(=O)N[C@@H](Cc1ccccc1)C(=O)N[C@@H](CC(C)C)C(=O)N[C@@H](CCCNC(=N)N)C(=O)N[C@@H](CC(N)=O)C(=O)NCC(=O)N[C@@H](CCCNC(=N)N)C(=O)N[C@@H](CCCCN)C(=O)N[C@@H](CS)C(=O)N[C@@H](CS)C(=O)N[C@@H](CCCNC(=N)N)C(=O)N[C@@H](CCCNC(=N)N)C(=O)N[C@@H](CCCCN)C(=O)N[C@@H](CCCCN)C(=O)O [CaD3, RIKDFLRNGR KCCRRKK] (H-RIKDFLRNGRKCCRRKK-OH; N-terminus and C-terminus assumed)",> 200,> 200,> 200,> 91.8,> 91.8,> 91.8,–,–,–,–,–
"C[C@H](NC(=O)[C@H](CCCCN)NC(=O)CNC(=O)[C@@H](N)CCCNC(=N)N)C(=O)N[C@@H](CCCCN)C(=O)N[C@@H](CS)C(=O)N[C@@H](CS)C(=O)N[C@@H](CCCCN)C(=O)NCC(=O)N[C@H](C(=O)N[C@@H](CCCCN)C(=O)N[C@@H](CS)C(=O)N[C@@H](CS)C(=O)N[C@@H](CCCCN)C(=O)N[C@@H](CCCCN)C(=O)N1CCC[C@H]1C(=O)O)[C@@H](C)O [DD12, RGKAKCCKGT KCCKKP] (H-RGKAKCCKGTKCCKKP-OH; N-terminus and C-terminus assumed)",> 200,> 200,> 200,> 115,> 115,> 115,–,–,–,–,–
"CC[C@H](C)[C@H](NC(=O)[C@H](CCCNC(=N)N)NC(=O)[C@H](CCC(N)=O)NC(=O)[C@@H](NC(=O)[C@@H](NC(=O)[C@H](CCCNC(=N)N)NC(=O)[C@@H](N)CCCCN)[C@@H](C)CC)C(C)C)C(=O)N[C@@H](CCCCN)C(=O)N[C@@H](CC(=O)O)C(=O)N[C@@H](Cc1ccccc1)C(=O)N[C@@H](CC(C)C)C(=O)N[C@@H](CCCNC(=N)N)C(=O)N[C@@H](CCCCN)C(=O)N[C@@H](C)C(=O)N[C@@H](CS)C(=O)N[C@@H](CCCCN)C(=O)N[C@@H](CCCCN)C(=O)N1CCC[C@H]1C(=O)O [CaD21, KRIVQRIKDF LRKACKKP] (H-KRIVQRIKDFLRKACKKP-OH; N-terminus and C-terminus assumed)",> 200,200,–,–,–,–,–,–,200,> 200,–

# From publication PMC8443647, “Hybrid derivative of cathelicidin and human beta defensin-2 against Gram-positive bacteria: A novel approach for the treatment of bacterial keratitis” (Scientific Reports, 2021)
